Toxic doses and inconclusive results are not listed. How the source made its calls: active means survival T/C of 150% or more; inactive means T/C below 125% in these data.
System: CD2F1 mice, L1210 leukemia ip, survival T/C
Test: NCI In Vivo Anticancer Drug Screen. Data for tumor model L1210 Leukemia (intraperitoneal) in CD2F1 (CDF1) mice
Details: endpoint: mean survival time, higher = longer survival
Method in brief: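 Vehicle-treated tumor-bearing mice served as controls (C) for compound-treated mice (T). Reported figure is T divided by C.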

Measured: T/C

Cc1ccc(-n2c(O)c(C=N)c(=O)[nH]c2=O)cc1
inactive: dose: 100.0 mg/kg/injection, schedule: Q04DX003 (ip), vehicle: saline with Tween-80 101 % of control | dose: 200.0 mg/kg/injection, schedule: Q04DX003 (ip), vehicle: saline with Tween-80 97 % of control | dose: 400.0 mg/kg/injection, schedule: Q04DX003 (ip), vehicle: saline with Tween-80 103 % of control

Cc1ccc(S(=O)(=O)NCCN(CCNS(=O)(=O)c2ccc(C)cc2)S(=O)(=O)c2ccc(C)cc2)cc1
inactive: dose: 12.5 mg/kg/injection, schedule: Q01DX009 (ip), vehicle: other 88 % of control | dose: 25.0 mg/kg/injection, schedule: Q01DX009 (ip), vehicle: other 86 % of control | dose: 50.0 mg/kg/injection, schedule: Q01DX009 (ip), vehicle: other 86 % of control | dose: 100.0 mg/kg/injection, schedule: Q01DX009 (ip), vehicle: other 92 % of control | dose: 200.0 mg/kg/injection, schedule: Q01DX009 (ip), vehicle: other 105 % of control

From PubChem BioAssay AID256 (DTP/NCI, 2004)
